“Also recorded” adds a separate entry of the source.
Key:
α3β4 receptors = target: T1, α3β4 receptors (Homo sapiens, UniProt P30926+P32297); assay: Two-electrode voltage clamp in Xenopus oocytes, α3β4 receptor; format: cell-based; conditions: 10 μM LD486, pre-stimulated 60 seconds, 10 μM ACh
T1 construct: expressed in transfected cells; host or cells: Xenopus oocytes
Experimental: (§1) FIGS. 4A and B show the response intensity curves of Xenopus oocytes stimulated by only […] Ach to α4β2 and α3β4 in the left panel, respectively.
(§2) FIGS. 4A and B show the response intensity curves of Xenopus oocytes stimulated by 10 μM ACh and […] LD486 to α4β2 and α3β4 in the right panel, respectively. Xenopus oocytes are pre-stimulated with 10 μM LD486 for 60 seconds.
(§3) Used as exogenous expression system, Xenopus oocytes are injected with different α subunits and β subunits at 1:1 ratio.

α7 nAChR [1] = target: T2, α7 nAChR (Homo sapiens, UniProt P36544); assay: α7 nAChR positive allosteric modulator activity assay, voltage clamp in Xenopus oocytes with 100 μM ACh; format: cell-based; conditions: for activity at 10 µM: at 10 μM compound, current induced by 100 μM ACh, Xenopus oocytes expressing α7 nAChR, read-out: Max Mod (%, at 10 μM)
T2 construct: expressed in transfected cells; host or cells: Xenopus oocytes (cRNA injection)
T2 sequence (P36544 23-502): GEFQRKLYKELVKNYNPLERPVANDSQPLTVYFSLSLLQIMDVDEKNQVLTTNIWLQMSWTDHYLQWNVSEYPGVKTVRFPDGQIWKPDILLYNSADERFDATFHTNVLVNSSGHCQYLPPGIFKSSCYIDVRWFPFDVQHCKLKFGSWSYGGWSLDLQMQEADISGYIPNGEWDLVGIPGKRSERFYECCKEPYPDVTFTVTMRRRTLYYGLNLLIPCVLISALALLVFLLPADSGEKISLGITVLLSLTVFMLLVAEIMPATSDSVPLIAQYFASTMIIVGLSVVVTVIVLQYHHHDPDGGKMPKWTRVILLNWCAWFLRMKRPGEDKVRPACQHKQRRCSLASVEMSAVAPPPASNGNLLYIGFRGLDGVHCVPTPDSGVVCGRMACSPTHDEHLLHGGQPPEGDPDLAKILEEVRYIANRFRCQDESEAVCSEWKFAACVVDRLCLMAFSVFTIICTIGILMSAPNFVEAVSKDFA
Experimental: The experimental process was as follows:
(1) Xenopus oocytes were injected with cRNA encoding α7 nAChR in order to express α7 nAChR on the cell membrane successfully;
(2) 100 μM ACh alone was added, and the α7 nAChR characteristic current caused by it was recorded as a control;
(5) The oocytes were incubated for 1 min with 10 μM compound, then 10 µM compound and 100 μM ACh were added simultaneously and the current induced by ACh was recorded at this time;
(6) The differences between the two currents in terms of peak intensity and duration were compared, with the ratio of peak intensity of the two currents representing the adjustment effect (Enhance Rate), in order to determine whether the compound had PAM activity, if the activity was good, then the subsequent test was carried out;
(7) Concentration gradient was set and the effects of compounds at different concentrations on the α7 nAChR characteristic current induced by 100 μM ACh were evaluated. Several determinations were carried out at the same concentration, and the results were presented in the form of “mean±standard deviation”;
(8) The EC50 (median maximum effect concentration) values and Max mod (the current amplitude caused by the maximal degree of adjustable endogenous agonist acetylcholine) values of the compounds and other activity data were obtained by Hill equation Inormalized=Emax/(1+(EC50/C)nH).
The amplitude of the peak current is only normalized by the amplitude produced by 100 μM ACh and different concentrations of LD486. […] It can be seen from FIG. 3 that the Hill equation is used to fit the dose-response curve and calculate the kinetic parameters.

α7 nAChR [2] = target: T3, α7 nAChR (Rattus norvegicus, UniProt Q05941); assay: Radioisotope ligand binding assay, displacement of [3H]-Methyllycaconitine bound to rat brain cell membrane
T3 construct: from tissue; host or cells: rat brain (hippocampus) cell membranes
T3 sequence (Q05941 23-502): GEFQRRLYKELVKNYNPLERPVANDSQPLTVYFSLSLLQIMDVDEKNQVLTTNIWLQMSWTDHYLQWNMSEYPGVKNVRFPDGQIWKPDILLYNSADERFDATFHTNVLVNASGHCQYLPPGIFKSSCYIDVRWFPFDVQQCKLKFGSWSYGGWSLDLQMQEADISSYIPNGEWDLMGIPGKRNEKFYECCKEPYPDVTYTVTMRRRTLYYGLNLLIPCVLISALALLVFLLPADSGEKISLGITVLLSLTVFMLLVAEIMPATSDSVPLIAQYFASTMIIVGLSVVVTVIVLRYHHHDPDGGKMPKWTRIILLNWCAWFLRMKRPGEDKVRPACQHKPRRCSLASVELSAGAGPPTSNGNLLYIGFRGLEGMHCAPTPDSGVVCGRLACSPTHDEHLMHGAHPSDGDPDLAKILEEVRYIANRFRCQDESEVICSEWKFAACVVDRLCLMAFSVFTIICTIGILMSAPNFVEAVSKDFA

α4β2 receptors = target: T4, α4β2 receptors (Homo sapiens, UniProt P17787+P43681); assay: Two-electrode voltage clamp in Xenopus oocytes, α4β2 receptor; format: cell-based; conditions: 10 μM LD486, pre-stimulated 60 seconds, 10 μM ACh
T4 construct: expressed in transfected cells; host or cells: Xenopus oocytes
T4 sequence (P43681 29-627 limits assumed): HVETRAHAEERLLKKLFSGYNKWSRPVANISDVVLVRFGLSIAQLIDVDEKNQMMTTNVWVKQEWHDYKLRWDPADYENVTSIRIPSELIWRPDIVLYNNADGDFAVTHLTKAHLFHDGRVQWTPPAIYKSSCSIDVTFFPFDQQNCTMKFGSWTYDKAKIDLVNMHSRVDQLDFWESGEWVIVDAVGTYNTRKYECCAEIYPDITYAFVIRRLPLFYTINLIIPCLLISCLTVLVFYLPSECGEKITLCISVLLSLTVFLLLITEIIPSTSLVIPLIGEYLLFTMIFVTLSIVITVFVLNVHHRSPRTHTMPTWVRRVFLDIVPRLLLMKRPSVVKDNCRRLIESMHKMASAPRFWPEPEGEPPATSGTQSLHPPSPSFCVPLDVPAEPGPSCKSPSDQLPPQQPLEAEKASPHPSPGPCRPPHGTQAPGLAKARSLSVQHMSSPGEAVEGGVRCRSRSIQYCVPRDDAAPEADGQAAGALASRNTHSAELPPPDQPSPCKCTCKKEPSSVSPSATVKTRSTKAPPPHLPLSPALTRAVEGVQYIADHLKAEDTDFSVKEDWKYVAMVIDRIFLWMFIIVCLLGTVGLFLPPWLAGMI
T4 sequence (P17787 26-502): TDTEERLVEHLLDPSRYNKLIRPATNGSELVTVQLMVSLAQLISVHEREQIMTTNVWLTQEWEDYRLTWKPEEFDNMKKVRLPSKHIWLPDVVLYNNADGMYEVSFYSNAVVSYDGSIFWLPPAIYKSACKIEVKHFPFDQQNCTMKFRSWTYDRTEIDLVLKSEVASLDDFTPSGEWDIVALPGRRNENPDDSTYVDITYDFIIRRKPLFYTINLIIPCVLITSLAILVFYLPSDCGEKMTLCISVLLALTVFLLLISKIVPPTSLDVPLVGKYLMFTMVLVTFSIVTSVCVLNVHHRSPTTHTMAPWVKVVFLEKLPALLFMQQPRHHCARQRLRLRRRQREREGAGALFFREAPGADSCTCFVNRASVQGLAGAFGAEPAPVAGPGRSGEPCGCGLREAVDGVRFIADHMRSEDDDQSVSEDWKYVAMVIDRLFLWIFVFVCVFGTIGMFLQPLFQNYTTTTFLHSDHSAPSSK
Experimental: as §1, §2, §3

[3] = target: T5, hERG (human ether-a-go-go related gene) channel (Homo sapiens, UniProt Q12809); assay: Automatic patch clamp Qplate-16 assay, hERG channel expressed on CHO cell lines; format: cell-based; conditions: CHO cells
T5 construct: expressed in transfected cells; host or cells: CHO (Chinese hamster ovary) cell lines
T5 sequence (Q12809 whole entry): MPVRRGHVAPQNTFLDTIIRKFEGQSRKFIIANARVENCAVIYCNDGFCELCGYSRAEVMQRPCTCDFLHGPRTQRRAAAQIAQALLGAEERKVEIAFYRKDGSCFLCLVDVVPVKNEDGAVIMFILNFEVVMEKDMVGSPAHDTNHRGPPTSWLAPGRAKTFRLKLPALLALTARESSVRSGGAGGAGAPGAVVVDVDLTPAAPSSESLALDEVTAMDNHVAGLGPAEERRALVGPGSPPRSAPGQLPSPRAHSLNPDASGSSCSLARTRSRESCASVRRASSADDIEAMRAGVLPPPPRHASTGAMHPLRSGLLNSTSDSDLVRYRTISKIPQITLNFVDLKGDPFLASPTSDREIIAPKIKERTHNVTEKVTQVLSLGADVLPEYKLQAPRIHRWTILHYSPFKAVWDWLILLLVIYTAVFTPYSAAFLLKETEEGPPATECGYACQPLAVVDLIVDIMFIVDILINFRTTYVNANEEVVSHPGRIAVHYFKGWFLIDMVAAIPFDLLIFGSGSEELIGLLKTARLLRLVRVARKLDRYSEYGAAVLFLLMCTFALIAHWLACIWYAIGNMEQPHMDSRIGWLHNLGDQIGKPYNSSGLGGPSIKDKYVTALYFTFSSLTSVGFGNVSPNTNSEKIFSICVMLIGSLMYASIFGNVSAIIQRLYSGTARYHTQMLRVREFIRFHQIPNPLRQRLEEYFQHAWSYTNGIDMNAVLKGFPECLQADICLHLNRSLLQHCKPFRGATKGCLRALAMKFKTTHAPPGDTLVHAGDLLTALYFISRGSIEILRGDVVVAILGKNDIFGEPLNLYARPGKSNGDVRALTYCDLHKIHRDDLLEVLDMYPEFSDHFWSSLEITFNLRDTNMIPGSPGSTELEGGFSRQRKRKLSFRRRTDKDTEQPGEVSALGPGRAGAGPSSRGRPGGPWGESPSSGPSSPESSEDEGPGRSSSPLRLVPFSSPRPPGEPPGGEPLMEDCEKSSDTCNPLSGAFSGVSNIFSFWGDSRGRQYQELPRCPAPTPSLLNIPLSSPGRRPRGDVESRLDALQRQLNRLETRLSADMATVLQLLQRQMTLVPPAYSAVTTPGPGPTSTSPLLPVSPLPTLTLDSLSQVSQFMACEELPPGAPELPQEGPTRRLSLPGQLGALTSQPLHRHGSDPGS
From the text: In the absence of LD486 or cisapride or in the presence of LD486 or cisapride at different concentrations, drug-related hERG potassium channel inhibition can lead to ventricular delayed repolarization (long QT interval syndrome), which may lead to a current intensity of fatal arrhythmia such as torsades de pointes, and even sudden death.

[4] = potentiation of current induced by 100 μM ACh, Hill equation fit

T1 sequence (P32297 32-505): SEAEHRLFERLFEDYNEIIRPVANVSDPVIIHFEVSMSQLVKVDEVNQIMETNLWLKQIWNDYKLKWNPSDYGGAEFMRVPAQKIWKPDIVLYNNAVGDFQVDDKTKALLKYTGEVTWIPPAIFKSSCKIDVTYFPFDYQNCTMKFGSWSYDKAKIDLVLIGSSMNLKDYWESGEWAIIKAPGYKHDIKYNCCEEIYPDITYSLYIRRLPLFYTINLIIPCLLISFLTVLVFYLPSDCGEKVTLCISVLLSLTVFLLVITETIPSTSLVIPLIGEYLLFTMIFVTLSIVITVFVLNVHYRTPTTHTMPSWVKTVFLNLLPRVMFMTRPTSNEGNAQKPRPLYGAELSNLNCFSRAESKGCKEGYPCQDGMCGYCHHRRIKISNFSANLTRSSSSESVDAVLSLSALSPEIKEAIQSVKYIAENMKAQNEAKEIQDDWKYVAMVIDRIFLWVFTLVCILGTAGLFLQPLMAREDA
T1 sequence (P30926 22-498): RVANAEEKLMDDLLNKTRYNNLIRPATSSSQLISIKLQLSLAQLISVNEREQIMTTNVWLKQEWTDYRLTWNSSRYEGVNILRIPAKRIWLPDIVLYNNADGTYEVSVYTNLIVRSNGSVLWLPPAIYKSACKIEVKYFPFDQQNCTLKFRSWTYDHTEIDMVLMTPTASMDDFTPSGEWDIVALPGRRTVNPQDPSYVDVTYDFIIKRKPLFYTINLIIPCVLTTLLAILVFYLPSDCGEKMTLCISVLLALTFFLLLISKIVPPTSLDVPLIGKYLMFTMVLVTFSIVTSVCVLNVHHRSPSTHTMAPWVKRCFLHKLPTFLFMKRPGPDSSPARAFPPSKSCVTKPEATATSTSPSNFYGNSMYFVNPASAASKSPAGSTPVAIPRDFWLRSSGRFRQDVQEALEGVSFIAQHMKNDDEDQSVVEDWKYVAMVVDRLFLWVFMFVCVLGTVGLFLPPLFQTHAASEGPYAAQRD

Row | Compound | activity at 10 µM (α7 nAChR [1]) [%] | EC50 (α7 nAChR [1]; [4]) [µM] | also measured
1 | Cc1nc(Cl)cc(Nc2nc3ncn(-c4c(C)cccc4Cl)c(=O)c3s2)n1 [LD486, 2-((6-Chloro-2-methylpyrimidin-4-yl)amino)-6-(2-chloro-6-methylphenyl)thiazolo[4,5-d]pyrimidin-7(6H)-one] | 320 |  | effect on current of α3β4 receptors (α3β4 receptors): did not increase; also recorded: no significant effect; maximal degree of adjustable endogenous agonist ACh current amplitude (α7 nAChR [1]; FIG. 3, Hill equation fit): about 3.2 times; Hill coefficient (α7 nAChR [1]; FIG. 3, n=6): 1.4±0.2; Emax (α7 nAChR [1]; FIG. 3, normalized to 100 μM ACh, repeated 6 times): 320%; EC50 (α7 nAChR [1]; FIG. 3 concentration response curve, 100 μM ACh, n=6): 3.2 ± 0.3 µM; induction of α7 nAChR characteristic current by compound alone (α7 nAChR [1]; LD486 0.1-10 μM alone, without ACh, FIG. 2): does not induce; current amplitude induced by 100 μM ACh compared with the control group (α7 nAChR [1]; incubation 1 min, then same concentration of LD486 plus 100 μM ACh, FIG. 2): significantly increased; Ki (α7 nAChR [1]; summary statement, read-out: Ki value as an α7nAChR PAM): ~3 µM; effect on binding of [3H]-MLA to α7 nAChR (α7 nAChR [2]; concentration increased to 10 μM, hippocampus of rats): does not affect; also recorded: not reduced; effect on current of α4β2 receptors (α4β2 receptors): did not increase; also recorded: no significant effect; inhibitory effect on the hERG channel [3]: no inhibitory effect; also recorded: slight inhibitory effect
2 | O=C(N[C@H]1CN2CCC1CC2)c1ccc(Cl)cc1 [PNU-282987, reference compound] |  |  | Ki (α7 nAChR [2]; displacement of [3H]-MLA, rat brain cell membrane, FIG. 1): 0.0341 ± 0.0043 µM
3 | Cc1ccc(Nc2nc3ncn(-c4ccccc4C)c(=O)c3s2)cc1 [JWX-A0414, 6-(o-Tolyl)-2-(p-tolylamino)thiazolo[4,5-d]pyrimidin-7(6H)-one] | 150 | 10 | 
4 | COc1ccc(C(=O)Nc2nc3ncn(-c4c(C)cccc4Cl)c(=O)c3s2)cc1 [JWX-A0312, N-(6-(2-Chloro-6-methylphenyl)-7-oxo-6,7-dihydrothiazolo[4,5-d]pyrimidin-2-yl)-4-methoxybenzamide] | 630 | 10 | 
5 | Cc1ccc(Nc2nc3ncn(-c4ccccc4C)c(=O)c3s2)cc1F [JWX-A-C1026, 6-(o-tolyl)-2-((3-fluoro-4-methylphenyl)amino)-thiazolo[4,5-d]pyrimidin-7(6H)-one] | 300 | 10 | 
6 | Cc1cccc(Cl)c1-n1cnc2nc(Nc3ccc(F)cc3)sc2c1=O [JWX-A1119, 6-(2-Chloro-6-methylphenyl)-2-((4-fluorophenyl)amino)thiazolo[4,5-d]pyrimidin-7(6H)-one] | 250 | 10 | 
7 | CSc1nc2ncn(-c3c(Cl)cccc3Cl)c(=O)c2s1 [LD493, 6-(2,6-Dichlorophenyl)-2-(methylthio) thiazolo[4,5-d]pyrimidin-7(6H)-one] | 110 |  | 
8 | COc1ccc(CSc2nc3ncn(-c4c(C)cccc4Cl)c(=O)c3s2)cc1 [LYH150326-4OCH3, 6-(2-Chloro-6-methylphenyl)-2-((4-methoxybenzyl)thio)thiazolo[4,5-d]pyrimidin-7(6H)-one] | 300 | 10 | 
9 | Cc1cccc(CSc2nc3ncn(-c4c(C)cccc4Cl)c(=O)c3s2)c1 [LYH150324-3Me, 6-(2-Chloro-6-methylphenyl)-2-((3-methylbenzyl)thio)thiazolo[4,5-d]pyrimidin-7(6H)-one] | 230 | 10 | 
10 | Cc1cccc(Cl)c1-n1cnc2nc(Nc3cc(Cl)ncn3)sc2c1=O [JWX-A0912, 6-(2-Chloro-6-methylphenyl)-2-((6-chloropyrimidin-4-yl)amino)thiazolo[4,5-d]pyrimidin-7(6H)-one] | 200 | 10 | 
11 | COc1cccc(Nc2nc3ncn(-c4c(C)cccc4Cl)c(=O)c3s2)c1 [JWX-A1106, 6-(2-chloro-6-methylphenyl)-2-((3-methoxyphenyl)amino)thiazolo[4,5-d]pyrimidin-7(6H)-one] | 150 | 10 | 
12 | Cc1cccc(Cl)c1-n1cnc2nc(Nc3ccc(OC(F)(F)F)cc3)sc2c1=O [JWX-A-C0901, 6-(2-Chloro-6-methylphenyl)-2-((4-(trifluoromethoxy)phenyl)amino)thiazolo[4,5-d]pyrimidin-7(6H)-one] | 200 | 10 | 
